In publication PMC6881293, “Nanomolar-potency ‘co-potentiator’ therapy for cystic fibrosis caused by a defined subset of minimal function CFTR mutants” (Scientific Reports, 2019):

Assays:
Assay type in all cases: cell-based
L1077P-CFTR = target: T1, L1077P-CFTR (Homo sapiens, UniProt P13569, L1077P); experiment: Short-circuit current in FRT cells expressing L1077P-CFTR; conditions: 20 μM forskolin, 5 µM VX-770, 20 µM ASP-11
T1 construct: expressed in transfected cells; host or cells: Fischer rat thyroid (FRT) cells; gift from Drs; Andras Rab and Jeong Hong (Emory University)
Procedure: (§1) As shown in Fig. 1C and summarized in Fig. 2, ASP-11 acted in synergy with VX-770 to increase chloride current in FRT cells expressing the NBD2 mutations I1234del- and Q1313X-CFTR by ~3–9-fold compared to VX-770. I1234del- and Q1313X-CFTR-expressing cells were also treated with VX-809 for 24 hours (to consider the effect of available CFTR therapeutics) with 2–3-fold greater currents observed.
(§2) Figure 2 Summary of short-circuit current responses to modulators for CFTR mutants in transfected FRT cells. Responses to indicated CFTR mutants with 20 μM forskolin, 5 µM VX-770, 20 µM ASP-11 (with or without 3 µM VX-809 overnight). For reference, data shown for cells expressing wild type CFTR. Mean ± S.E.M., n = 3.
(§3) Short-circuit current was measured on cells cultured on Snapwell clear permeable supports (Corning) as described[10],[11]. Hemichambers were connected to a DVC-1000 voltage clamp (World Precision Instruments Inc., Sarasota, FL) via Ag/AgCl electrodes and 3 M KCl agar bridges for recording of the short-circuit current. For human airway epithelial cells, symmetrical HCO3^−-buffered solutions (in mM: 120 NaCl, 5 KCl, 1 MgCl2, 1 CaCl2, 5 Hepes, 25 NaHCO3, 10 glucose, pH 7.4) for basolateral and apical side were used. […]

S492F-CFTR = target: T2, S492F-CFTR (Homo sapiens, UniProt P13569, S492F); experiment: Short-circuit current in FRT cells expressing S492F-CFTR; conditions: 20 µM forskolin, 5 µM VX-770, 20 µM ASP-11, 3 µM VX-809 for 18–24 h
T2 construct: expressed in transfected cells; host or cells: Fischer rat thyroid (FRT) cells; gift from Drs; Andras Rab and Jeong Hong (Emory University)
Procedure: (§4) Figure 1 Co-potentiator ASP-11 activity in minimal function CFTR mutants in transfected FRT cells. (A) Structure of ASP-11. (B) Location of minimal function CFTR mutants studied herein. (C) Representative short-circuit current data in FRT cells expressing I1234del-CFTR, Q1313X-CFTR and S492F-CFTR in response to 20 µM forskolin (fsk), 5 µM VX-770, 20 µM ASP-11 and 10 μM CFTRinh-172. As indicated, cells were treated with 3 µM VX-809 for 18–24 h prior to measurements. (n = 3) (D). Representative short-circuit current data in FRT cells expressing predicted W1282X-CFTR read-through products W1282L-CFTR, W1282R-CFTR and W1282C-CFTR (without and with VX-809 pretreatment) (n = 3). MSD, membrane spanning domain; NBD, nucleotide binding domain; R, regulatory domain.
as §1
as §3, with “used. For FRT cells, the basolateral membrane was permeabilized with 250 μg/ml amphotericin B, and experiments were done with a chloride gradient using a HCO3^−-buffered solutions (Basolateral (mM): 120 NaCl, 5 KCl, 1 MgCl2, 1 CaCl2, 5 Hepes, 25 NaHCO3, 10 glucose, pH 7.4; apical (mM): 60 NaCl, 60 mM sodium gluconate, 5 KCl, 1 MgCl2, 1 CaCl2, 5 Hepes, 25 NaHCO3, 10 glucose, pH 7.4).” for “used.”

M1101K-CFTR = target: T3, M1101K-CFTR (Homo sapiens, UniProt P13569, M1101K); experiment: Short-circuit current in FRT cells expressing M1101K-CFTR; conditions: 20 μM forskolin, 5 µM VX-770, 20 µM ASP-11
T3 construct: expressed in transfected cells; host or cells: Fischer rat thyroid (FRT) cells; gift from Drs; Andras Rab and Jeong Hong (Emory University)
Procedure: as §1, §2, §3

V520F-CFTR = target: T4, V520F-CFTR (Homo sapiens, UniProt P13569, V520F); experiment: Short-circuit current in FRT cells expressing V520F-CFTR; conditions: 20 μM forskolin, 5 µM VX-770, 20 µM ASP-11
T4 construct: expressed in transfected cells; host or cells: Fischer rat thyroid (FRT) cells; gift from Drs; Andras Rab and Jeong Hong (Emory University)
Procedure: as §1, §2, §3

W1282L-CFTR = target: T5, W1282L-CFTR (Homo sapiens, UniProt P13569, W1282L); experiment: Short-circuit current in FRT cells expressing W1282L-CFTR; conditions: 20 µM forskolin, 5 µM VX-770, 20 µM ASP-11
T5 construct: introduced into full-length CFTR cDNA in the vector pcDNA3.1/Zeo (+); expressed in transfected cells
Procedure: as §4
(§5) Compounds that promote read-through of PTCs to generate full-length CFTR have shown limited efficacy in cell culture studies[15]–[17]. Though the read-through drug ataluren (PTC124) was ineffective in clinical trials, newer compounds are in development. We investigated the ability of ASP-11 to activate chloride current in predicted W1282X-CFTR read-through products. […] FRT cell lines were generated that stably expressing W1282L-, W1282C- and W1282R-CFTR.
(§6) Short-circuit current was measured on cells cultured on Snapwell clear permeable supports (Corning) as described[10],[11]. […]

R1162X-CFTR = target: T6, R1162X-CFTR (Homo sapiens, UniProt P13569); experiment: Short-circuit current in FRT cells expressing R1162X-CFTR; conditions: 5 µM VX-770, 20 µM ASP-11, 3 µM VX-809 overnight
T6 construct: expressed in transfected cells; host or cells: Fischer rat thyroid (FRT) cells; gift from Drs; Andras Rab and Jeong Hong (Emory University)
Procedure: as §1, §2
Short-circuit current was measured on cells cultured on Snapwell clear permeable supports (Corning) as described[10],[11]. Hemichambers were connected to a DVC-1000 voltage clamp (World Precision Instruments Inc., Sarasota, FL) via Ag/AgCl electrodes and 3 M KCl agar bridges for recording of the short-circuit current. For human airway epithelial cells, symmetrical HCO3^−-buffered solutions (in mM: 120 NaCl, 5 KCl, 1 MgCl2, 1 CaCl2, 5 Hepes, 25 NaHCO3, 10 glucose, pH 7.4) for basolateral and apical side were used. For FRT cells, the basolateral membrane was permeabilized with 250 μg/ml amphotericin B, and experiments were done with a chloride gradient using a HCO3^−-buffered solutions (Basolateral (mM): 120 NaCl, 5 KCl, 1 MgCl2, 1 CaCl2, 5 Hepes, 25 NaHCO3, 10 glucose, pH 7.4; apical (mM): 60 NaCl, 60 mM sodium gluconate, 5 KCl, 1 MgCl2, 1 CaCl2, 5 Hepes, 25 NaHCO3, 10 glucose, pH 7.4). All cells were equilibrated with 95% O2, 5% CO2 and maintained at 37 °C during experiments.

W1282C-CFTR = target: T7, W1282C-CFTR (Homo sapiens, UniProt P13569, W1282C); experiment: Short-circuit current in FRT cells expressing W1282C-CFTR; conditions: 20 µM forskolin, 5 µM VX-770, 20 µM ASP-11
T7 construct: introduced into full-length CFTR cDNA in the vector pcDNA3.1/Zeo (+); expressed in transfected cells
Procedure: as §4, §5, §6

N1303K-CFTR = target: T8, N1303K-CFTR (Homo sapiens, UniProt P13569, N1303K); experiment: Short-circuit current in gene-edited 16HBE14o- cells expressing N1303K-CFTR (16HBE-N1303Kge); conditions: 16HBE-N1303Kge cells; 20 µM compound after 20 µM forskolin and 5 µM VX-770
T8 construct: expressed in transfected cells
Procedure: To test the efficacy of new co-potentiators in human airway cell models, short-circuit current was measured in 16HBE14o- human airway epithelial cells in which the endogenous CFTR gene was edited to contain the N1303K mutation (16HBE-N1303Kge[21]) and in primary cultures of human bronchial epithelial cells from a N1303K homozygous CF subject. Addition of forskolin and then VX-770 to 16HBE-N1303Kge cells gave a limited response (Fig. 6A). Subsequent addition of CP-A061 or CP-D123 produced CFTRinh-172-inhibitable responses of ~10 μA/cm^2, ~6-fold greater that that produced by VX-770 alone. Increased short-circuit current was also found for these co-potentiators in the primary human bronchial epithelial cell cultures (Fig. 6B).
Figure 6 N1303K-CFTR activity in human airway epithelial cell cultures. (A) Short-circuit current in gene-edited 16HBE14o- cells expressing N1303K-CFTR. Concentrations: 20 µM amiloride, 20 µM forskolin, 5 µM VX-770, 20 µM CP-A061 and CP-D123, and 10 µM CFTRinh-172. Representative original curves (left and center) and summary of changes in current (∆Isc) (right). Mean ± S.E.M., n = 3, *P < 0.05). (B) Short-circuit current in primary cultures of human bronchial epithelial cells from a homozygous N1303K-CFTR CF subject. […]
as §6

T5 sequence (P13569 whole entry W1282L): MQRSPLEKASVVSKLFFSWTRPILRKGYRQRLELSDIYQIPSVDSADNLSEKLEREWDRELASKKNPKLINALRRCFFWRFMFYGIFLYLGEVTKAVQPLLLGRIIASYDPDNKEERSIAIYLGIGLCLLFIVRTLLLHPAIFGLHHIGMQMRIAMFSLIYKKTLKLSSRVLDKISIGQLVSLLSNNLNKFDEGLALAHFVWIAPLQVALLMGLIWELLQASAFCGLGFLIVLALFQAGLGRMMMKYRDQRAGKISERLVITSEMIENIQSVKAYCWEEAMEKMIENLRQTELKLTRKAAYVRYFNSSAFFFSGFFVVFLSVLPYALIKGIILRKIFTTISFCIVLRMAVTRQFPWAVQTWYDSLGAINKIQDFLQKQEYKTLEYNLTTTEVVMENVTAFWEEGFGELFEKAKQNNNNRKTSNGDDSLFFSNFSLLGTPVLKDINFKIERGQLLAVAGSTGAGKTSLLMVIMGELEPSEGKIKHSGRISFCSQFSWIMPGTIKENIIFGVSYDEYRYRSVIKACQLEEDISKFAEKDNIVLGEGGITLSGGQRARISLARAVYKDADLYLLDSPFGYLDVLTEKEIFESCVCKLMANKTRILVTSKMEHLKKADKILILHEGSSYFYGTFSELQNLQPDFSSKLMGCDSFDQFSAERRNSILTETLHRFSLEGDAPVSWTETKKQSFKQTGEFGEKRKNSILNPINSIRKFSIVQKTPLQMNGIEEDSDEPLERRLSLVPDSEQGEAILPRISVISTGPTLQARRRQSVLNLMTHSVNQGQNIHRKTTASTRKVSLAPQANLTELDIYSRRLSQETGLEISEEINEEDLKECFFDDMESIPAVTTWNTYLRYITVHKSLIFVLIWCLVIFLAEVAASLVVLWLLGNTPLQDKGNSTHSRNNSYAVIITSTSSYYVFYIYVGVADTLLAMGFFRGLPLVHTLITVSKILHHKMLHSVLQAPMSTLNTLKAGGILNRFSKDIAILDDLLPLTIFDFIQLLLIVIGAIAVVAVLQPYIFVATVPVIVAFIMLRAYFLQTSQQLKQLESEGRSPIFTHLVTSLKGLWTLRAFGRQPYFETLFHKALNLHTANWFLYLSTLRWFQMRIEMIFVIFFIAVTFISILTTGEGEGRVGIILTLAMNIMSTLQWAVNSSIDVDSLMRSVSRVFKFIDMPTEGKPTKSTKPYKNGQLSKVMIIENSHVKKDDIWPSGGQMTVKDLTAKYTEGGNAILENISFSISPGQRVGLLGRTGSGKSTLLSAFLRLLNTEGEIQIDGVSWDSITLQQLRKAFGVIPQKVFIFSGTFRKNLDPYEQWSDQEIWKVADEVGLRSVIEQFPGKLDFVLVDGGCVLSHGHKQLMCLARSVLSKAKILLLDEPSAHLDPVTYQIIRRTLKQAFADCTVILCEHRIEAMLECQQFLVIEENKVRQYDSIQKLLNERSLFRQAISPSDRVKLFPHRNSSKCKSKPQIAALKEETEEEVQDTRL
T7 sequence (P13569 whole entry W1282C): as the sequence (P13569 whole entry W1282L) above, with L1282C counted along it
T8 sequence (P13569 whole entry N1303K): as the sequence (P13569 whole entry W1282L) above, with L1282W, N1303K counted along it
T6 sequence (P13569 1-1161 limits assumed): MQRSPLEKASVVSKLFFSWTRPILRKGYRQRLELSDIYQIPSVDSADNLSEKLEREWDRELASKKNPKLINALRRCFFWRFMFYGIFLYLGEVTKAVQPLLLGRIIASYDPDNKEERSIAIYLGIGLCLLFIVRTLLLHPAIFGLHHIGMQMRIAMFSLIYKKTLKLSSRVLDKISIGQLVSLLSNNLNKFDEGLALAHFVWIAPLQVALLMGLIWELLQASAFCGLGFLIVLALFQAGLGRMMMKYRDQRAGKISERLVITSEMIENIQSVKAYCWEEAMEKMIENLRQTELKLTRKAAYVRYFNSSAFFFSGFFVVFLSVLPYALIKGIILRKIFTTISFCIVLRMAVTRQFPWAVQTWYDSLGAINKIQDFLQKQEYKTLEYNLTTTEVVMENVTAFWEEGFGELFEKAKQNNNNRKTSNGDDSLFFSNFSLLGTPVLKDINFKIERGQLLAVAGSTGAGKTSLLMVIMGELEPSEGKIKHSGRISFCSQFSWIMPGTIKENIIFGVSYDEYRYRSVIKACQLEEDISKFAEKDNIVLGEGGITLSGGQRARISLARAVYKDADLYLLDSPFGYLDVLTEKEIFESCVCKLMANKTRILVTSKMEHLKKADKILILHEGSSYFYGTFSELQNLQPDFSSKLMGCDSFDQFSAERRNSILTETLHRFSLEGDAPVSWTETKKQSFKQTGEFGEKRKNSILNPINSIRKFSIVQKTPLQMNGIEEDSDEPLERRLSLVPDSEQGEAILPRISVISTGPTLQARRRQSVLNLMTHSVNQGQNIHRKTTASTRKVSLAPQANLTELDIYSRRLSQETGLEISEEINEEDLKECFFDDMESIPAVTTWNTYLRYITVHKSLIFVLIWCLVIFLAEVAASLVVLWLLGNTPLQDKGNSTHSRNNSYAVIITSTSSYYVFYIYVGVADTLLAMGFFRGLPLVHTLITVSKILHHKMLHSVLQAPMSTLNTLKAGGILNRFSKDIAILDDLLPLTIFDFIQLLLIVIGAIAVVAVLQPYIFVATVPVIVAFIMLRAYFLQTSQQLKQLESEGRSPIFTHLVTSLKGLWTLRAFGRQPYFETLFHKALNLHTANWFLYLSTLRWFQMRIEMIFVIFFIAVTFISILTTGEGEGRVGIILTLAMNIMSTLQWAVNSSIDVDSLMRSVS
T2 sequence (P13569 whole entry S492F): as the sequence (P13569 whole entry W1282L) above, with S492F, L1282W counted along it
T3 sequence (P13569 whole entry M1101K): as the sequence (P13569 whole entry W1282L) above, with M1101K, L1282W counted along it
T4 sequence (P13569 whole entry V520F): as the sequence (P13569 whole entry W1282L) above, with V520F, L1282W counted along it
T1 sequence (P13569 whole entry L1077P): as the sequence (P13569 whole entry W1282L) above, with L1077P, L1282W counted along it

| SMILES | ASP-11 effect on short-circuit current (L1077P-CFTR) | short-circuit current response to modulator (S492F-CFTR) | ASP-11 effect on short-circuit current (M1101K-CFTR) | ASP-11 effect on short-circuit current (V520F-CFTR) | effect on short-circuit current after forskolin (W1282L-CFTR) | short-circuit current response to modulator (R1162X-CFTR) | effect on short-circuit current after forskolin (W1282C-CFTR) | CFTRinh-172-inhibitable short-circuit current response (N1303K-CFTR) | response relative to that produced by VX-770 alone (N1303K-CFTR) |
| --- | --- | --- | --- | --- | --- | --- | --- | --- | --- |
| CCCCn1cc(S(=O)(=O)Nc2ccc(CC)cc2)c2cccnc21 [ASP-11] | absence of ASP-11 effect | no response | absence of ASP-11 effect | absence of ASP-11 effect | little additional | did not respond | significant further effects |  |  |
| COc1ccc2[nH]c3c(c2c1)CCNC31CCN(Cc2ccc(F)cc2F)CC1 [Compound A061] |  |  |  |  |  |  |  | ~ 10 μA/cm^2 | ~ 6 fold |
| CC(C)(C)c1cc(C(C)(C)C)c(NC(=O)c2c[nH]c3ccccc3c2=O)cc1O [VX-770, ivacaftor] |  | no response |  |  | little additional | did not respond | significant further effects |  |  |
